Publication PMC10041525, “New Dual Inhibitors of Bacterial Topoisomerases with Broad-Spectrum Antibacterial Activity and In Vivo Efficacy against Vancomycin-Intermediate Staphylococcus aureus” (Journal of Medicinal Chemistry, 2023)
Read-outs that look alike come from different tables or passages of the source.

Experiments:
[1] = test system: 100 A. baumannii strains (50 MDR, 50 non-MDR); assay: MIC broth microdilution at IHMA Europe, panel of 100 strains; format: cell-based; details: for MIC / MIC50 / MIC90: Acinetobacter baumannii
A. baumannii ATCC 17978 = assay: IHMA QC MIC; format: cell-based; details: Acinetobacter baumannii, ATCC17978, read-out: MIC (QC, repeated tests)
Protocol: (§1) The panel of Hungarian clinical isolates and controls measured following the same method as detailed above, and albeit measurements were carried out in 384-well microtiter plates (Corning Inc.).

E. coli ATCC 35218 = assay: IHMA QC MIC; format: cell-based; details: Escherichia coli, ATCC35218, read-out: MIC (QC, repeated tests)
Protocol: as §1

E. coli ATCC 25922 = assay: IHMA QC MIC; format: cell-based
H. influenzae ATCC 49247 = assay: IHMA QC MIC; format: cell-based; details: Haemophilus influenzae
Text: (§2) Supplement jm2c01905_si_004.xlsx, sheet "QC" | column: MIC [µg/mL]

H. influenzae ATCC 49766 = assay: IHMA QC MIC; format: cell-based
Text: as §2

S. pneumoniae ATCC 49619 [2] = assay: IHMA QC MIC; format: cell-based
Text: as §2

S. pneumoniae ATCC 49619 [3] = test system: S. pneumoniae ATCC 49619; set-up: method as in earlier work; details: QC range for S. pneumoniae ATCC 49619, ref CLSI; cited from earlier work

C[C@H]1COc2c(N3CCN(C)CC3)c(F)cc3c(=O)c(C(=O)O)cn1c23.C[C@H]1COc2c(N3CCN(C)CC3)c(F)cc3c(=O)c(C(=O)O)cn1c23.O [Levofloxacin, levofloxacin]
MIC ([1]; A. baumannii IHMA 2180142, Malaysia 2020, MDR): 4 µg/mL
MIC ([1]; A. baumannii IHMA 2181370, Morocco 2020, MDR): 8 µg/mL
MIC ([1]; A. baumannii IHMA 2183729, Argentina 2020, MDR): 8 µg/mL
MIC ([1]; A. baumannii IHMA 2183849, Argentina 2020, Non-MDR): ≤ 0.25 µg/mL
MIC ([1]; A. baumannii IHMA 2184382, Japan 2020, Non-MDR): ≤ 0.25 µg/mL
MIC ([1]; A. baumannii IHMA 2193375, Venezuela 2020, MDR): 8 µg/mL
MIC ([1]; A. baumannii IHMA 2193485, Venezuela 2020, Non-MDR): ≤ 0.25 µg/mL
MIC ([1]; A. baumannii IHMA 2193607, Venezuela 2020, MDR): 8 µg/mL
MIC ([1]; A. baumannii IHMA 2195460, Italy 2020, MDR): 16 µg/mL
MIC ([1]; A. baumannii IHMA 2196914, South Africa 2020, MDR): 16 µg/mL
MIC ([1]; A. baumannii IHMA 2196959, South Africa 2020, MDR): 4 µg/mL
MIC ([1]; A. baumannii IHMA 2203763, Spain 2020, MDR): > 16 µg/mL
MIC ([1]; A. baumannii IHMA 2205144, Korea, South 2020, MDR): 16 µg/mL
MIC ([1]; A. baumannii IHMA 2206459, Taiwan 2020, MDR): 16 µg/mL
MIC ([1]; A. baumannii IHMA 2206507, Taiwan 2020, Non-MDR): ≤ 0.25 µg/mL
MIC ([1]; A. baumannii IHMA 2212575, Hungary 2020, Non-MDR): ≤ 0.25 µg/mL
MIC ([1]; A. baumannii IHMA 2215307, Hong Kong 2020, Non-MDR): ≤ 0.25 µg/mL
MIC ([1]; A. baumannii IHMA 2216586, Taiwan 2020, MDR): 8 µg/mL
MIC ([1]; A. baumannii IHMA 2223200, Colombia 2020, Non-MDR): ≤ 0.25 µg/mL
MIC ([1]; A. baumannii IHMA 2224017, Panama 2020, MDR): 8 µg/mL
MIC ([1]; A. baumannii IHMA 2224303, Panama 2020, Non-MDR): ≤ 0.25 µg/mL
MIC ([1]; A. baumannii IHMA 2231797, Greece 2020, MDR): 8 µg/mL
MIC ([1]; A. baumannii IHMA 2233099, Guatemala 2020, MDR): 8 µg/mL
MIC ([1]; A. baumannii IHMA 2233430, Kazakhstan 2020, MDR): > 16 µg/mL
MIC ([1]; A. baumannii IHMA 2233548, Kazakhstan 2020, Non-MDR): ≤ 0.25 µg/mL
MIC ([1]; A. baumannii IHMA 2238964, Thailand 2020, MDR): 4 µg/mL
MIC ([1]; A. baumannii IHMA 2239052, Thailand 2020, Non-MDR): ≤ 0.25 µg/mL
MIC ([1]; A. baumannii IHMA 2261047, Belgium 2020, MDR): 8 µg/mL
MIC ([1]; A. baumannii IHMA 2261633, Canada 2020, Non-MDR): ≤ 0.25 µg/mL
MIC ([1]; A. baumannii IHMA 2274234, South Africa 2020, MDR): 8 µg/mL
MIC ([1]; A. baumannii IHMA 2274364, South Africa 2020, MDR): 16 µg/mL
MIC ([1]; A. baumannii IHMA 2275237, Chile 2020, Non-MDR): ≤ 0.25 µg/mL
MIC ([1]; A. baumannii IHMA 2275751, Jordan 2020, MDR): 8 µg/mL
MIC ([1]; A. baumannii IHMA 2316205, United States 2020, MDR): 16 µg/mL
MIC50 ([1]; MDR n = 50): 8 µg/mL
MIC90 ([1]; MDR n = 50): 16 µg/mL
MIC50 ([1]; all isolates n = 100): 0.5 µg/mL
MIC90 ([1]; all isolates n = 100): 16 µg/mL
MIC50 ([1]; non-MDR n = 50): ≤ 0.25 µg/mL
MIC90 ([1]; non-MDR n = 50): ≤ 0.25 µg/mL
MIC ([1]; read-out: MAX (maximum MIC), non-MDR n = 50): 0.5 µg/mL
MIC ([1]; read-out: MAX (maximum MIC; all strains inhibited), MDR n = 50): > 16 µg/mL
MIC ([1]; read-out: MAX (maximum MIC; all strains inhibited), all isolates n = 100): > 16 µg/mL
MIC ([1]; read-out: MIN (minimum MIC), MDR n = 50): 4 µg/mL
MIC ([1]; read-out: MIN (minimum MIC), all isolates n = 100): ≤ 0.25 µg/mL
MIC ([1]; read-out: MIN (minimum MIC), non-MDR n = 50): ≤ 0.25 µg/mL
Percentage I ([1]; MDR n = 50): 12%
Percentage R ([1]; MDR n = 50): 88%
Percentage S ([1]; MDR n = 50): 0%
Percentage I ([1]; all n = 100, CLSI breakpoints): 6%
Percentage R ([1]; all n = 100, CLSI breakpoints): 44%
Percentage S ([1]; all n = 100, CLSI breakpoints): 50%
Percentage I ([1]; non-MDR n = 50): 0%
Percentage R ([1]; non-MDR n = 50): 0%
Percentage S ([1]; non-MDR n = 50): 100%
MIC (A. baumannii ATCC 17978): ≤ 0.25 µg/mL
MIC (E. coli ATCC 35218): ≤ 0.25 µg/mL
MIC (E. coli ATCC 25922; Escherichia coli, ATCC25922): 0.015 µg/mL
MIC (E. coli ATCC 25922; Escherichia coli, ATCC25922, read-out: MIC (QC, repeated tests)): ≤ 0.25 µg/mL
MIC (E. coli ATCC 25922; QC strain E. coli ATCC 25922, test date 2021-11-26): 0.015 µg/mL
MIC (H. influenzae ATCC 49247; ATCC49247, QC strain H. influenzae ATCC 49247, test date 2021-11-11): 0.015 µg/mL
MIC (H. influenzae ATCC 49247; ATCC49247, QC strain H. influenzae ATCC 49247, test date 2021-11-26): 0.015 µg/mL
MIC (H. influenzae ATCC 49766; Haemophilus influenzae, ATCC49766): 0.015 µg/mL
MIC (H. influenzae ATCC 49766; QC strain H. influenzae ATCC 49766, test date 2021-11-26): 0.015 µg/mL
MIC (S. pneumoniae ATCC 49619 [2]; QC strain S. pneumoniae ATCC 49619, test date 2021-11-26): 0.5 µg/mL
MIC (S. pneumoniae ATCC 49619 [2]; Streptococcus pneumoniae, ATCC49619): 0.5 µg/mL
MIC, CLSI Range (S. pneumoniae ATCC 49619 [3]): 0,5 - 2 µg/mL
